Source: patent US12173007B2, “Imidazopyridazine IL-17 inhibitor compounds” (Janssen Pharmaceutica NV, priority 2021, dated 2024)

Tested on: IL-17A-induced G-CSF production in human normal keratinocyte (NHK)
Assay: NHK assay: IL-17A-induced G-CSF production in normal human keratinocytes
Assay type: cell-based
Conditions: Homo sapiens, Keratinocyte, 24 h, IL-17A 5 ng/mL, G-CSF by HTRF, average if tested more than once
Procedure: IL-17A acts directly on keratinocytes through binding to dimeric receptor IL-17RA/RC and drives the production of a number of inflammatory mediators known to be elevated in psoriasis lesional tissue. IL-17A small molecule inhibitors that block the IL-17A to interact with IL-17R would inhibit the IL-17A signaling in its targeted cells such as keratinocytes. The compound functional activity is evaluated for its impact on IL-17A-induced G-CSF production in human normal keratinocyte (NHK).
Adult normal human keratinocytes are cultured in keratinocyte growth medium (Lonza) in a flask till reaching ˜90% confluence, then cells are transferred to a 384-well plate at density of 3000-4000 cell/well. Recombinant human IL-17A (Gibco PHC9174) is pre-incubated with titrated compound or DMSO for 1 h at rt then added to the cell culture plate. The final concentration of IL-17A is 5 ng/mL and DMSO is 0.2%, in the culture containing 5% FBS. Cells are cultured/treated for 24 h at 37° C. Supernatants are collected and G-CSF production is measured through HTRF technology using Human G-CSF Kit (CisBio). G-CSF concentration was extrapolated from the standard curve and IC50 is determined using GraphPad Prism. Cell viability is also evaluated using CellTiter-Glo kit (Promega) and effect of compound on cell viability is compared to DMSO control.

Molecule | IC50 [nM]
Cc1nonc1C(=O)N[C@H](c1cn2ncc([C@@H](C3CC3)N3CCC4(CC4)NC3=O)cc2n1)C1CCC(F)(F)CC1 [Example 47, N—[(S)-[7-[(R)-Cyclopropyl-(7-oxo-6,8-diazaspiro[2.5]octan-6-yl)methyl]imidazo[1,2-b]pyridazin-2-yl]-(4,4-difluorocyclohexyl)methyl]-4-methyl-1,2,5-oxadiazole-3-carboxamide] | > 100
CCOCC(c1cnn2cc([C@@H](NC(=O)c3nonc3C3CC3)C3CCC(F)(F)CC3)nc2c1)N1CC(F)(F)CNC1=O (single isomer, unassigned) [Example 36, 4-Cyclopropyl-N—((S)-(7-((S*)-1-(5,5-difluoro-2-oxotetrahydropyrimidin-1(2H)-yl)-2-ethoxyethyl)imidazo[1,2-b]pyridazin-2-yl)(4,4-difluorocyclohexyl)methyl)-1,2,5-oxadiazole-3-carboxamide] | < 50
COC[C@H](c1cnn2cc([C@H](CC(C)(C)C(F)(F)F)NC(=O)c3nonc3C3CC3)nc2c1)N1CC(F)(F)CNC1=O [Example 41, 4-Cyclopropyl-N—((S)-1-(7-((S)-1-(5,5-difluoro-2-oxotetrahydropyrimidin-1(2H)-yl)-2-methoxyethyl)imidazo[1,2-b]pyridazin-2-yl)-4,4,4-trifluoro-3,3-dimethylbutyl)-1,2,5-oxadiazole-3-carboxamide] | < 50
COC[C@H](c1cnn2cc([C@@H](NC(=O)c3nonc3C)[C@@H](C)O[C@H](C)C(F)(F)F)nc2c1)N1CC(F)(F)CNC1=O [Example 53, N-((1R,2R)-1-(7-((S)-1-(5,5-Difluoro-2-oxotetrahydropyrimidin-1(2H)-yl)-2-methoxyethyl)imidazo[1,2-b]pyridazin-2-yl)-2-(((R)-1,1,1-trifluoropropan-2-yl)oxy)propyl)-4-methyl-1,2,5-oxadiazole-3-carboxamide] | < 50
CC(C)(C[C@H](NC(=O)c1nonc1C1CC1)c1cn2ncc([C@@H](COC3CC3)N3CC(F)(F)CNC3=O)cc2n1)C(F)(F)F [Example 44, N—((S)-1-(7-((S)-2-Cyclopropoxy-1-(5,5-difluoro-2-oxotetrahydropyrimidin-1(2H)-yl)ethyl)imidazo[1,2-b]pyridazin-2-yl)-4,4,4-trifluoro-3,3-dimethylbutyl)-4-cyclopropyl-1,2,5-oxadiazole-3-carboxamide] | < 50
COC[C@H](c1cnn2cc(C(CCC(C)(C)C(F)(F)F)NC(=O)c3nonc3C3CC3)nc2c1)N1CC(F)(F)CNC1=O (single isomer, unassigned) [Example 46, 4-Cyclopropyl-N—((S*)-1-(7-((S)-1-(5,5-difluoro-2-oxotetrahydropyrimidin-1(2H)-yl)-2-methoxyethyl)imidazo[1,2-b]pyridazin-2-yl)-5,5,5-trifluoro-4,4-dimethylpentyl)-1,2,5-oxadiazole-3-carboxamide] | < 50
Cc1nocc1C(=O)N[C@H](c1cn2ncc([C@@H](COC3CC3)N3CC(F)(F)CNC3=O)cc2n1)C1CCC(F)(F)CC1 [Example 38, N—((S)-(7-((S)-2-Cyclopropoxy-1-(5,5-difluoro-2-oxotetrahydropyrimidin-1(2H)-yl)ethyl)imidazo[1,2-b]pyridazin-2-yl)(4,4-difluorocyclohexyl)methyl)-3-methylisoxazole-4-carboxamide] | < 50
C[C@H](c1cnn2cc([C@@H](NC(=O)c3nonc3C3CC3)C3CCC(F)(F)CC3)nc2c1)N1CC(F)(F)CNC1=O [Example 63, 4-Cyclopropyl-N—((S)-(7-((R)-1-(5,5-difluoro-2-oxotetrahydropyrimidin-1(2H)-yl)ethyl)imidazo[1,2-b]pyridazin-2-yl)(4,4-difluorocyclohexyl)methyl)-1,2,5-oxadiazole-3-carboxamide] | < 50
Cc1nonc1C(=O)N[C@H](c1cn2ncc([C@@H](C3CC3)N3CCC(C(F)(F)F)NC3=O)cc2n1)C1CCC(F)(F)CC1 (single isomer, unassigned) [Example 48, N—((S)-(7-((R)-Cyclopropyl((S*)-2-oxo-4-(trifluoromethyl)tetrahydropyrimidin-1(2H)-yl)methyl)imidazo[1,2-b]pyridazin-2-yl)(4,4-difluorocyclohexyl)methyl)-4-methyl-1,2,5-oxadiazole-3-carboxamide] | > 100
COC[C@H](c1cnn2cc([C@H](NC(=O)c3nonc3C3CC3)[C@@H]3CCC(F)(F)C3)nc2c1)N1CC(F)(F)CNC1=O (relative stereo) [Example 52, 4-Cyclopropyl-N—((R*)-(7-((S)-1-(5,5-difluoro-2-oxotetrahydropyrimidin-1(2H)-yl)-2-methoxyethyl)imidazo[1,2-b]pyridazin-2-yl)((R*)-3,3-difluorocyclopentyl)methyl)-1,2,5-oxadiazole-3-carboxamide] | < 50
CC(C)n1nccc1C(=O)N[C@H](c1cn2ncc([C@@H](COC3CC3)N3CC(F)(F)CNC3=O)cc2n1)C1CCC(F)(F)CC1 [Example 37, N—((S)-(7-((S)-2-Cyclopropoxy-1-(5,5-difluoro-2-oxotetrahydropyrimidin-1(2H)-yl)ethyl)imidazo[1,2-b]pyridazin-2-yl)(4,4-difluorocyclohexyl)methyl)-1-isopropyl-1H-pyrazole-5-carboxamide] | < 50
COC[C@H](c1cnn2cc([C@H](COC(C)(C)C(F)(F)F)NC(=O)c3ccnn3C(C)C)nc2c1)N1CC(F)(F)CNC1=O [Example 65, N—((R)-1-(7-((S)-1-(5,5-Difluoro-2-oxotetrahydropyrimidin-1(2H)-yl)-2-methoxyethyl)imidazo[1,2-b]pyridazin-2-yl)-2-((1,1,1-trifluoro-2-methylpropan-2-yl)oxy)ethyl)-1-isopropyl-1H-pyrazole-5-carboxamide] | < 50
Cc1nonc1C(=O)N[C@H](c1cn2ncc(C(COC3CCC3)N3CC(F)(F)CNC3=O)cc2n1)C1CCC(F)(F)CC1 (single isomer, unassigned) [Example 57, N—((S)-(7-((S*)-2-Cyclobutoxy-1-(5,5-difluoro-2-oxotetrahydropyrimidin-1(2H)-yl)ethyl)imidazo[1,2-b]pyridazin-2-yl)(4,4-difluorocyclohexyl)methyl)-4-methyl-1,2,5-oxadiazole-3-carboxamide] | < 50
COC[C@H](c1cnn2cc([C@@H](NC(=O)c3nonc3C3CC3)[C@@H](C)O[C@H](C)C(F)(F)F)nc2c1)N1CC(F)(F)CNC1=O [Example 42, 4-Cyclopropyl-N-((1R,2R)-1-(7-((S)-1-(5,5-difluoro-2-oxotetrahydropyrimidin-1(2H)-yl)-2-methoxyethyl)imidazo[1,2-b]pyridazin-2-yl)-2-(((R)-1,1,1-trifluoropropan-2-yl)oxy)propyl)-1,2,5-oxadiazole-3-carboxamide] | < 50
Cc1nonc1C(=O)N[C@@H](COC(C)(C)C(F)(F)F)c1cn2ncc([C@@H](C3CC3)N3CC(F)(F)CNC3=O)cc2n1 [Example 62, N—((R)-1-(7-((R)-Cyclopropyl(5,5-difluoro-2-oxotetrahydropyrimidin-1(2H)-yl)methyl)imidazo[1,2-b]pyridazin-2-yl)-2-((1,1,1-trifluoro-2-methylpropan-2-yl)oxy)ethyl)-4-methyl-1,2,5-oxadiazole-3-carboxamide] | 50 to 100
COC[C@H](c1cnn2cc([C@@H](NC(=O)c3nonc3C)[C@@H](C)OC(C)(C)C(F)(F)F)nc2c1)N1CC(F)(F)CNC1=O (relative stereo) [Example 60, N-((1R*,2R*)-1-(7-((S)-1-(5,5-Difluoro-2-oxotetrahydropyrimidin-1(2H)-yl)-2-methoxyethyl)imidazo[1,2-b]pyridazin-2-yl)-2-((1,1,1-trifluoro-2-methylpropan-2-yl)oxy)propyl)-4-methyl-1,2,5-oxadiazole-3-carboxamide] | < 50
Cc1nonc1C(=O)N[C@H](c1cn2ncc(C(COC(C)C)N3CC(F)(F)CNC3=O)cc2n1)C1CCC(F)(F)CC1 (single isomer, unassigned) [Example 58, N—((S)-(7-((S*)-1-(5,5-Difluoro-2-oxotetrahydropyrimidin-1(2H)-yl)-2-isopropoxyethyl)imidazo[1,2-b]pyridazin-2-yl)(4,4-difluorocyclohexyl)methyl)-4-methyl-1,2,5-oxadiazole-3-carboxamide] | < 50

Same assay, conditions: IL-17A 5 ng/mL, 24 h, G-CSF by HTRF; average if tested more than once

Molecule | IC50 [nM]
4-Cyclopropyl-N—((R)-1-(7-((S)-1-(5,5-difluoro-2-oxotetrahydropyrimidin-1(2H)-yl-4,4,6,6-d4)-2-methoxyethyl)imidazo[1,2-b]pyridazin-2-yl)-2-((1,1,1-trifluoro-2-methylpropan-2-yl)oxy)ethyl)-1,2,5-oxadiazole-3-carboxamide [Example 39] | < 50
Cc1nonc1C(=O)N[C@H](c1cn2ncc([C@@H](C3CC3)N3CCC(C(F)(F)F)NC3=O)cc2n1)C1CCC(F)(F)CC1 (single isomer, unassigned) [Example 49, N—((S)-(7-((R)-Cyclopropyl((R*)-2-oxo-4-(trifluoromethyl)tetrahydropyrimidin-1(2H)-yl)methyl)imidazo[1,2-b]pyridazin-2-yl)(4,4-difluorocyclohexyl)methyl)-4-methyl-1,2,5-oxadiazole-3-carboxamide] | > 100
